This is an account of results in ChEMBL document CHEMBL1123023, “Syntheses and differentiating action of vitamin D endoperoxides. Singlet oxygen adducts of vitamin D derivatives in human myeloid leukemia cells (HL-60)” (1985).

One assay has as its system HL-60. In words: Evaluated for its ability to induce phagocytosis in human myeloid leukemia cells (HL-60). The arrangement: unit not given here. In kind it is functional.
Assay [1] concerns the target T1, Vitamin D3 receptor (Homo sapiens) (UniProt P11473).
T1 sequence (whole entry): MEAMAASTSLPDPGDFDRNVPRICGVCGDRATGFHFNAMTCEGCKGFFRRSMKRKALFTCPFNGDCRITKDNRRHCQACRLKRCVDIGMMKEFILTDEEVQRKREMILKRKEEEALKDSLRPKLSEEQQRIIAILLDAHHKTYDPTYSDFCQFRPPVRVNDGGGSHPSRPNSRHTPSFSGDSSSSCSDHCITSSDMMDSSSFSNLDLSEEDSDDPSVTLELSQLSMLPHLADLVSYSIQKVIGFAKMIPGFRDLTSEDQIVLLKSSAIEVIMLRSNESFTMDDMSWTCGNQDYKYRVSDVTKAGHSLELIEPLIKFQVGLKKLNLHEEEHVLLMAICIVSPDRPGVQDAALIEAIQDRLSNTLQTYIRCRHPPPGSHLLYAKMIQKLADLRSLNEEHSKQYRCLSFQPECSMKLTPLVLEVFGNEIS
Description: Evaluated for its binding affinity towards cytosol receptor in human myeloid leukemia cells (HL-60), by using 1-alpha,25-(OH)2D3 as radioligand

SMILES strings stand for the structures.

`C[C@H](CCCC(C)(C)O)[C@H]1CC[C@H]2/C(=C/[C@H]3OOCC4=C3C[C@@H](O)CC4)CCC[C@]12C` had a Phagocytosis with HL-60 of 120. In assay [1], this compound came in with a Binding activity of 3000. Taken in the same sequence, the figures for `C=C1/C(=C\C=C2/CCC[C@]3(C)[C@@H]([C@H](C)CC[C@@H](O)C(C)C)CC[C@@H]23)C[C@@H](O)C[C@@H]1O` [TACALCITOL] were 1 and 1. Taken in the same sequence, the figures for `C=C1CC[C@H](O)C/C1=C/C=C1\CCC[C@]2(C)[C@@H]([C@H](C)CCCC(O)(C(F)(F)F)C(F)(F)F)CC[C@@H]12` were 200 and 50.

`C=C1/C(=C\C=C2/CCC[C@]3(C)[C@@H]([C@H](C)CCCC(C)C)CC[C@@H]23)C[C@@H](O)C[C@@H]1O` [ALFACALCIDOL]: in the assay on HL-60, the Phagocytosis was found to be 320. Further, the Binding activity in assay [1] came to 800. Taken in the same sequence, the figures for `CC(C)CCC[C@@H](C)[C@H]1CC[C@H]2/C(=C/[C@H]3OOCC4=C3C[C@@H](O)C[C@@H]4O)CCC[C@]12C` were more than 1000 and more than 10000. For `C[C@H](CCCC(C)(C)O)[C@H]1CC[C@H]2/C(=C/[C@H]3OOCC4=C3C[C@@H](O)C[C@@H]4O)CCC[C@]12C`, in that order: 130 and 800. With `C[C@H](CCCC(C)(C)O)[C@H]1CC[C@H]2/C(=C/[C@@H]3OOCC4=C3C[C@@H](O)CC4)CCC[C@]12C`, the Phagocytosis with HL-60 came out at 130. Also, the Binding activity in assay [1] worked out at 3000.

In the assay on HL-60, `C=C1CC[C@H](O)C/C1=C/C=C1\CCC[C@]2(C)[C@@H]([C@H](C)CCC(F)(F)C(C)(C)O)CC[C@@H]12` registered a Phagocytosis of 200. Further, in assay [1], the Binding activity amounted to 1000.

Take `C[C@H](CCCC(C)(C)O)[C@H]1CC[C@H]2/C(=C/[C@@H]3OOCC4=C3C[C@@H](O)C[C@@H]4O)CCC[C@]12C`: in the assay on HL-60, the Phagocytosis amounted to 200. The Binding activity in assay [1] stood at 800.

For `CC(C)[C@H](O)CC[C@@H](C)[C@H]1CC[C@H]2/C(=C/[C@H]3OOCC4=C3C[C@@H](O)C[C@@H]4O)CCC[C@]12C`, the Phagocytosis in the assay on HL-60 came to 150. The same compound registered a Binding activity in assay [1] of 800. For `CC(C)CCC[C@@H](C)[C@H]1CC[C@H]2/C(=C/[C@@H]3OOCC4=C3C[C@@H](O)C[C@@H]4O)CCC[C@]12C`, in that order: more than 1000 and more than 10000. Taken in the same sequence, the figures for `C[C@H](CCCC(O)(C(F)(F)F)C(F)(F)F)[C@H]1CC[C@H]2/C(=C/[C@@H]3OOCC4=C3C[C@@H](O)CC4)CCC[C@]12C.C[C@H](CCCC(O)(C(F)(F)F)C(F)(F)F)[C@H]1CC[C@H]2/C(=C/[C@H]3OOCC4=C3C[C@@H](O)CC4)CCC[C@]12C` were 30 and 1500. Taken in the same sequence, the figures for `C=C1CC[C@H](O)C/C1=C/C=C1\CCC[C@]2(C)[C@@H]([C@H](C)CCCC(C)(C)O)CC[C@@H]12` [CALCIFEDIOL ANHYDROUS] were 320 and 600.

In the case of `C=C1/C(=C\C=C2/CCC[C@]3(C)[C@@H]([C@H](C)CCCC(C)(C)O)CC[C@@H]23)C[C@@H](O)C[C@@H]1O` [CALCITRIOL], the Phagocytosis in the assay on HL-60 is reported as 1. On to `CC(C)[C@H](O)CC[C@@H](C)[C@H]1CC[C@H]2/C(=C/[C@@H]3OOCC4=C3C[C@@H](O)C[C@@H]4O)CCC[C@]12C`, for which the Phagocytosis in the assay with HL-60 is 200. Moreover, in assay [1], the Binding activity was determined as 800. Taken in the same sequence, the figures for `C[C@H](CCC(F)(F)C(C)(C)O)[C@H]1CC[C@H]2/C(=C/[C@@H]3OOCC4=C3C[C@@H](O)CC4)CCC[C@]12C.C[C@H](CCC(F)(F)C(C)(C)O)[C@H]1CC[C@H]2/C(=C/[C@H]3OOCC4=C3C[C@@H](O)CC4)CCC[C@]12C` were 45 and 1000.
